# Values quoted from earlier work, collected in US9889198B2 (KemPharm, Inc., priority 2010, dated 2018).
# Legend:
# human NET = human NET (Homo sapiens, UniProt P23975); conditions: relative to quetiapine
# 5-HT1A receptor = biological target: T1, 5-HT1A receptor (Homo sapiens, UniProt P08908); conditions: relative to quetiapine
# T1 sequence (P08908 1-422): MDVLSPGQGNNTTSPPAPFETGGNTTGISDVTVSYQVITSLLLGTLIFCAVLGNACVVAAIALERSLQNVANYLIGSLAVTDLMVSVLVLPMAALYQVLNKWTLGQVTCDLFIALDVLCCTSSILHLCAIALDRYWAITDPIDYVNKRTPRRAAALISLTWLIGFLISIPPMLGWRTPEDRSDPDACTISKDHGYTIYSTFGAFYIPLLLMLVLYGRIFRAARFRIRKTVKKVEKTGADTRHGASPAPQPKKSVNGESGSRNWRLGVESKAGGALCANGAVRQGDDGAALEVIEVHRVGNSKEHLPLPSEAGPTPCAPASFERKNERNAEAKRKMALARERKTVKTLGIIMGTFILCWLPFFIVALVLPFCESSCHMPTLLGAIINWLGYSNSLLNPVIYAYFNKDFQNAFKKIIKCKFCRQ
# leptin release = conditions: chronic oral administration, 6 weeks
# Sequence of human NET (P23975 whole entry): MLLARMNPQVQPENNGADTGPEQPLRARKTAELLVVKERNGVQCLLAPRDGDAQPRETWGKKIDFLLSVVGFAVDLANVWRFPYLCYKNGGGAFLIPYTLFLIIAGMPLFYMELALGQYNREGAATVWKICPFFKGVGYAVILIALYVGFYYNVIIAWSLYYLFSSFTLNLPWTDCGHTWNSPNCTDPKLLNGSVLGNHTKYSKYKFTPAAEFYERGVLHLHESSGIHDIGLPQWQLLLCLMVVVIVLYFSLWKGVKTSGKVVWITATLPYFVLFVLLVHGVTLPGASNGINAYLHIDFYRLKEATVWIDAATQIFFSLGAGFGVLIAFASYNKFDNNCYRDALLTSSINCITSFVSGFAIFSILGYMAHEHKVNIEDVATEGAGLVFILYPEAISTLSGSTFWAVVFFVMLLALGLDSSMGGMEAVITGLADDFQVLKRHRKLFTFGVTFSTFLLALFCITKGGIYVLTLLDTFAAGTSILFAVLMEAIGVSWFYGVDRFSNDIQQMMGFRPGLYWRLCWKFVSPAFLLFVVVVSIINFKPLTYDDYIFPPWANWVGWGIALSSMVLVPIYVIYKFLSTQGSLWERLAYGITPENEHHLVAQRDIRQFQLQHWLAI
smiles,measurement,setting,value
c1ccc2c(c1)N=C(N1CCNCC1)c1ccccc1S2 [N-desalkyl-quetiapine],higher avidity for inhibiting human NET than quetiapine,human NET,about 100 fold
same,more potent than quetiapine at the 5-HT1A receptor,5-HT1A receptor,10 fold
"CCCC(CCC)C(=O)O [Valproic acid, 2-propylpentanoic acid]",response rate in acute mania,acute mania patients,around 50%
same,response rate in bipolar depression,bipolar depression,~30%
"OCCOCCN1CCN(C2=Nc3ccccc3Sc3ccccc32)CC1 [quetiapine, 2-(2-(4-(dibenzo[b,f][1,4]thiazepin-11-yl)piperazin-1-yl)ethoxy)ethanol]",increase in leptin release,leptin release,about 37%
